The source of these data is paper PMC7948796, “Mammalian-like type II glutaminyl cyclases in Porphyromonas gingivalis and other oral pathogenic bacteria as targets for treatment of periodontitis” (The Journal of Biological Chemistry, 2021).

The target of data set [1] is T1, PiQC (Prevotella intermedia, UniProt A0AAD1F671). Format: biochemical. To be noted: for Effect of chelator on QC activity: PiQC, Fig. S2. How it is done: (§1) To test whether QC is a metalloenzyme, the turnover of H-Gln-AMC at a concentration corresponding to 0.5 KM was investigated in the presence of the metal chelators 1,10- phenanthroline, dipicolinic acid, and EDTA. The fluorometric activity assay was performed as described above, except for the presence of 1% (v/v) DMSO in the case of 1,10-phenanthroline or dipicolinic acid. Finally, the residual QC activity was determined at steady state, whereas QC without chelators and ± 1% DMSO served as positive control.
T1 sequence (A0AAD1F671 24-340 limits assumed): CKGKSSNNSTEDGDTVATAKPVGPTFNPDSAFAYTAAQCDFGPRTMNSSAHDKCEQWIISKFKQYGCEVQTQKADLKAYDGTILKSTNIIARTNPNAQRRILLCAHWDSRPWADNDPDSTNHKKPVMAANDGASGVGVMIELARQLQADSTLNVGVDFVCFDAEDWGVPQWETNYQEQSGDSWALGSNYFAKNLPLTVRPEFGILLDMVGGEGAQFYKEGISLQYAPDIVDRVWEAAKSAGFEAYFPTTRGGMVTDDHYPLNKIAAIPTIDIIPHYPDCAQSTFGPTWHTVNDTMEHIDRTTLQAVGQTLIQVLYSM
(§2) 250 µM H-Gln-AMC and increasing chelator
(§3) concentrations were used to investigate the inhibitory effect on QC activity. Bars indicate residual
(§4) QC activity following initiation of the reaction by adding 5 nM QC (red: PgQC; green: PiQC; blue:
(§5) TfQC). All measurements were performed at 30°C as described in the text.
(§6) (1 picture or pasted object on this page, not shown here)

Data set [2] deals with T2, TfQC (Tannerella forsythia, UniProt G8UMP8). The class given is biochemical. Conditions: Fig. S2. The method, then:
as §1, §2, §3, §4, §5, §6

Data set [3] has as its target T3, PgQC (Porphyromonas gingivalis, UniProt Q7MT37). Briefly: Residual QC activity in presence of metal chelators. The class given is biochemical. More on the design: His-tag (pET28a, thrombin-cleavable) (N, cleaved yes); made in house; host or cells: E. coli Rosetta(DE3)pLysS. To be noted: Fig. S2. How it is done: as §1
Supplementary Figure 2: Inhibition of bacteroidal QC activity by metal chelators: ( A) ED TA ,
(B) dipicolinic acid and (C) 1,10-phenantroline. 250 µM H-Gln-AMC and increasing chelator
as §3, §4, §5, §6

The target in data set [4] is T1, PiQC. The data set is described as follows: QC inhibition assay with fluorogenic substrate H-Gln-AMC (Ki). Format: biochemical. To be noted: 1% DMSO, pH 8.0, 30 °C. How it is done: (§7) Inhibitory constants were determined using concentrations of H-Gln-AMC varying from 1/4 KM to 2 KM and a final concentration of bacterial QC in a range between 25 nM and 50 nM. Progress curves were fitted to the general equation for competitive inhibition.

Data set [5] addresses T2, TfQC. Described as above. The class given is biochemical. To be noted: 1% DMSO, pH 8.0, 30 °C. How it is done:
as §7

Data set [6] has as its target T4, HsQC (Homo sapiens, UniProt Q16769). The description is as above. Format: biochemical.
The target of data set [7] is T3, PgQC. Described as above. Format: biochemical. More on the design: His-tag (pET28a, thrombin-cleavable) (N, cleaved yes); made in house; host or cells: E. coli Rosetta(DE3)pLysS. How it is done:
as §7

Data set [8] addresses T3, PgQC. How it is done: (§8) QC activity was evaluated using the fluorogenic substrate H-Gln-AMC as described previously ([43]). Measurements were performed at different concentrations of fluorogenic substrate and 0.5 U pyroglutaminyl aminopeptidase in 50 mM Tris-HCl, 50 mM NaCl at pH 8.0. After 10 min incubation time at 30 °C, the reaction was initiated by addition of approximately 50 nM QC to a final volume of 125 μl reaction mixture. QC activity was calculated from a standard curve of the fluorophore AMC at assay conditions using excitation/emission wavelengths of 380/460 nm. All measurements were carried out in 96-well microtiter plates (Fisher Scientific) at 30 °C using the FluoStar Optima (BMG Labtech). All kinetic data were evaluated using GraFit software (Version 7, Erithacus software Ltd).
(§9) Supplementary Figure 1: QC activity measurements for bacteroidal QC cataly zed cyclization of the fluorogenic substrate H-Gln-AMC. (A) v/S-characteristics and Lineweaver-Burk plots for PgQC (red circles), TfQC (green triangles) and PiQC (blue squares). QC activity measurements were performed in 50 mM Tris-HCl, pH 8.0 and 50 mM NaCl at 30°C. Kinetic data were evaluated using GraFit software (Version 7, Erithacus software Ltd., Horley, UK). (B) pH dependence of PgQC, TfQC, and PiQC activities; colors and sy mbols as in (A). The specificity constants kcat/KM were determined under first-order rate law conditions with substrate concentrations of 1/10 KM.
(§10) Measurements were carried out at 30°C in buffer consisting of 0.1 M Tris-HCl, 0.05 MES, 0.05 mM acetic acid and 0.05 mM NaCl.. […]

The target in data set [9] is T2, TfQC. The data set is described as follows: Kinetics of cyclization of H-Gln-AMC. Format: biochemical. How it is done:
as §8, §9, §10

Data set [10] addresses T1, PiQC. Format: biochemical. How it is done: as §8, §9, §10
For data set [11], the target named is T4, HsQC. More on the design: method as in Schilling et al. ([44]). Conditions: ref Schilling et al. ([44]); cited from earlier work.
Substrate in data set [12]: CC(C)[C@H](NC(=O)[C@H](CCC(N)=O)NC(=O)[C@@H](N)CCC(N)=O)C(=O)N[C@@H](C)C(=O)N[C@@H](C)C(=O)N[C@@H](C)C(=O)N[C@@H](CC(=O)O)C(=O)N1CCC[C@H]1C(=O)N[C@@H](CO)C(=O)N1CCC[C@H]1C(N)=O
Briefly: Conversion of N-termini of putative natural substrates, spectrophotometric assay with glutamate dehydrogenase. The class given is biochemical, Porphyromonas gingivalis. To be noted: other: PgQC; determined under first-order-rate law conditions, [S] << KM; pH 8.0; 30.0 °C. How it is done: (§11) For evaluation of possible physiological substrates, PgQC activity was determined spectrophotometrically by using glutamate dehydrogenase as auxiliary enzyme described previously ([44]). […] After 10-min incubation time at 30 °C, reactions were initiated by addition of approximately 115 nM PgQC to a final volume of 250 μl reaction mixture. QC turnover of substrates was monitored by a decrease of absorption at 340 nm and enzyme activity was determined from a standard curve of NH4Cl at assay conditions.

Substrate in data set [13]: CC(C)[C@H](NC(=O)[C@H](CO)NC(=O)[C@H](C)NC(=O)[C@H](CC(N)=O)NC(=O)[C@H](CO)NC(=O)[C@H](CCC(=O)O)NC(=O)[C@@H](N)CCC(N)=O)C(=O)N[C@@H](CCCNC(=N)N)C(=O)N1CCC[C@H]1C(=O)N[C@@H](CO)C(N)=O
Described as above. The class given is biochemical, Porphyromonas gingivalis. To be noted: other: PgQC; determined under first-order-rate law conditions, [S] << KM; pH 8.0; 30.0 °C. The method, then: as §11

Substrate in data set [14]: CC[C@H](C)[C@H](NC(=O)[C@@H](NC(=O)[C@H](CC(=O)O)NC(=O)[C@@H](N)CCC(N)=O)C(C)C)C(=O)N[C@@H](CCCNC(=N)N)C(=O)N1CCC[C@H]1C(=O)N[C@@H](Cc1c[nH]c2ccccc12)C(=O)N[C@@H](CO)C(=O)N[C@@H](CC(C)C)C(=O)N[C@@H](CCC(N)=O)C(N)=O
The data set is described as above. The class given is biochemical, Porphyromonas gingivalis. Conditions: other: PgQC; determined under first-order-rate law conditions, [S] << KM; pH 8.0; 30.0 °C. How it is done:
as §11

Substrate in data set [15]: CC[C@H](C)[C@H](NC(=O)[C@H](CO)NC(=O)[C@H](CC(=O)O)NC(=O)[C@@H]1CCCN1C(=O)[C@@H](NC(=O)[C@@H](NC(=O)[C@H](CO)NC(=O)[C@@H](N)CCC(N)=O)C(C)C)C(C)C)C(=O)NCC(=O)N[C@@H](CCCNC(=N)N)C(N)=O
Described as above. Format: biochemical, Porphyromonas gingivalis. Conditions: other: PgQC, pH 8.0, 30 °C. How it is done: as §11

Substrate in data set [16]: C[C@H](NC(=O)[C@H](CCC(=O)O)NC(=O)[C@H](Cc1ccc(O)cc1)NC(=O)[C@@H](NC(=O)[C@H](CCCNC(=N)N)NC(=O)[C@H](CC(N)=O)NC(=O)[C@H](CCCNC(=N)N)NC(=O)[C@H](CO)NC(=O)[C@@H](N)CCC(N)=O)[C@@H](C)O)C(=O)N[C@@H](Cc1ccc(O)cc1)C(N)=O
The description is as above. Format: biochemical, Porphyromonas gingivalis. To be noted: other: PgQC, pH 8.0, 30 °C. The method, then: as §11

Where [17] appears, read: H-Gln-AMC substrate, 1% DMSO, pH 8.0, 30 °C, read-out: Inhibition of QC (Ki) PgQC.

Where two headings read alike, the source gives them in different places.

T4 sequence (Q16769 29-361): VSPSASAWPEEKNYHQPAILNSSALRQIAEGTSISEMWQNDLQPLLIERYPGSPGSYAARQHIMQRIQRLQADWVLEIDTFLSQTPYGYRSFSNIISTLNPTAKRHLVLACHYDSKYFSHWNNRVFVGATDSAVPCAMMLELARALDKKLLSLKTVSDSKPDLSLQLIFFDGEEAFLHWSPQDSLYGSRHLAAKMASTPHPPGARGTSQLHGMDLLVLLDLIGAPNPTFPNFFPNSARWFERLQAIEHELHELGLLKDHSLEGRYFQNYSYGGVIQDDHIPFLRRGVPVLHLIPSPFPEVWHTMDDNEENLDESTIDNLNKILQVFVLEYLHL
T2 sequence (G8UMP8 entry or part of it): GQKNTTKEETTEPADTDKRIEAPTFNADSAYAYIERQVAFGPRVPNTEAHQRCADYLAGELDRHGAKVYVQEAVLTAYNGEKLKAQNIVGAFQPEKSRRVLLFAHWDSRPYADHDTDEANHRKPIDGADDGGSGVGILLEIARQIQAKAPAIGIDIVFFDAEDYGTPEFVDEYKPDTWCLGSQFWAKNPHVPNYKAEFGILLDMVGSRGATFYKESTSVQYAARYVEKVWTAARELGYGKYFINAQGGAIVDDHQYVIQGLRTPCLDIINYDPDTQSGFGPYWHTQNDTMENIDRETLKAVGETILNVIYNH

Regarding `c1cnc2c(c1)ccc1cccnc12` [1,10-phenanthroline], the “Sensitivity of PiQC to chelator” value in data set [1] (PiQC compared with other bacteroidal QCs) was “particularly sensitive”. Besides, the “Effect of chelator on QC activity” value in [1], in data set [2] and in [3] was “strong inhibitory activity” throughout.

Broadly, the Ki is the equilibrium dissociation constant of an inhibitor or competing ligand from its target. On to `c1ccc(Cn2ccnc2)cc1` [1-Benzylimidazol, 1-benzylimidazole], for which the Ki in data set [4] was 13.5 ± 2.2 µM; in data set [5] it was 6.45 ± 0.33 µM; in data set [6], 16.8 ± 3.5 µM; in data set [7] (setting [17]), 10.4 ± 0.3 µM; in [7] (stated in text for the bacteroidal QCs in general, read-out: Estimated Ki, highest efficacy) it was ~10 µM. For the same molecule, the “Mode of inhibition of PgQC” value in data set [7] (Fig. S3) is on record as “competitive manner”.

Take `c1ccc2[nH]cnc2c1` [Benzimidazole, benzimidazole]: the Ki in data set [4] is 85.5 ± 4.7 µM; in data set [5], 170 ± 1 µM; in [6], 318 ± 23 µM; in data set [7] (setting [17]) it was 32.1 ± 1.4 µM.

As for `O=C(O)CN(CCN(CC(=O)O)CC(=O)O)CC(=O)O` [EDTA], the “Effect of chelator on QC activity” value in [1], in data set [2] and in data set [3] was “little influence” in each case.

By Km is commonly meant the substrate concentration at which the rate is half of its maximum. For orientation: kcat means the maximal rate divided by the concentration of active sites. On to `Cc1cc(=O)oc2cc(NC(=O)[C@@H](N)CCC(N)=O)ccc12` [H-Gln-AMC], for which the “specificity constant kcat/KM relative to that of HsQC” value in data set [8] is ~9%; in data set [9] it was “approximately 4%”; in data set [10], ~13%. The Km in data set [8] (pH 8.0, 30 °C) is 510 ± 13 µM; in [9] (pH 8.0, 30 °C) it was 1090 ± 30 µM; in data set [10] (pH 8.0, 30 °C), 645 ± 7 µM; in [11], 54 ± 2 µM. For the same molecule, the kcat in data set [8] (pH 8.0, 30 °C) is 4.71 ± 0.22 s⁻¹; in [9] (pH 8.0, 30 °C), 4.49 ± 0.22 s⁻¹; in data set [10] (pH 8.0, 30 °C), 8.51 ± 0.37 s⁻¹; in data set [11], 5.3 ± 0.1 s⁻¹. For the same molecule, the “KM value higher compared with HsQC” value in [9] is given as ~20 fold.

With `c1c[nH]cn1` [Imidazole, imidazole], the values for the Ki in data set [4], in data set [5] and in data set [7] (setting [17]) were 288 ± 11 µM, 280 ± 15 µM and 349 ± 23 µM, respectively.

In the case of `O=C(O)c1cccc(C(=O)O)n1` [dipicolinic acid], the “Effect of chelator on QC activity” value in data set [1], in data set [2] and in data set [3] was “strong inhibitory activity” in each case.

B1: PgQC (Porphyromonas gingivalis W83) (protein)
chain: NGNNTSETQGDRTEQAETVQADLFSADSAYTFVQRQVNFGPRIPGTAPHRACGDWLVATLRSFGAAVQEQTAEIKAHDGTMLPMRNIIASYRPEATGRMLLMAHWDTRPVCDQDANPAMHTETFDGADDGGSGVGVLLEIARYLGQQKDLGMGIDIVFFDTEDYGSYGDDESWCLGSQYWSRNPHVAGYKAEAGILLDMVGAKGATFYWEYFSKSYAPGLISAVWQTAAALGYGNYFIQADGGALTDDHVPVIKNLGIPCIDIINYSSKNEHGFGDHWHTQRDNMQIIDKNVLDAVGETVIRYLDEQVKAASH
Broadly, the kcat/Km is the second-order rate constant that governs catalysis at low substrate concentration. In the case of B1, the kcat/Km was determined as 12500 ± 1900 M⁻¹ s⁻¹ in data set [12]; 4300 ± 100 M⁻¹ s⁻¹ in [13]; 18600 ± 100 M⁻¹ s⁻¹ in data set [14]; 14300 ± 600 M⁻¹ s⁻¹ in data set [15]; 65100 ± 6000 M⁻¹ s⁻¹ in [16]. For the same molecule, the results for the Km in data set [15] and in data set [16] were 492.5 ± 26 µM and 203.7 ± 5.1 µM, respectively. In addition, the kcat in data set [15] turned out to be 7 ± 0.66 s⁻¹; in data set [16], 13.3 ± 1.6 s⁻¹.
